Data as given in patent publication US20180133327A1, “Cell Penetrating Peptides and Complexes Comprising the Same” (Amal Therapeutics SA, priority 2015, published 2018).

Experiments:
[1] = tested on: human MART1-specific CD8 T cells; experiment: In vitro epitope presentation (MHC I) assay by human dendritic cells; assay type: cell-based; details: human monocyte-derived DCs loaded with 1 μM Zxx-MART1 for 4 h; intracellular staining for CD107, IFN-γ and TNF-α
Description: Human monocyte-derived DCs were loaded with 1 μM of scramble-MART1, Z13-MART1, Z14-MART1, Z15-MART1 or Z18-MART1 for 4 h, wash and then incubated o.n. at 37° C. Specific TCR-transfected T cells were then added to DCs and incubated for 5 h with monensin and brefeldinA before intracellular FACS staining for CD107, IFN-γ and TNF-α.
In order to assess the capacity of the ZEBRA CPP truncations to promote epitope presentation by human DCs, the following constructs (Z13-MART1, Z14-MART1, Z15-MART1 and Z18-MART1, with each of the Z13, Z14, Z15 and Z18 CPP conjugated to the HLA-A2 epitope of the tumor associated antigen (TAA) MART1)) were synthesized:
These constructs (Z13, Z14, Z15, and Z18 CPPs conjugated to the HLA-A2 epitope of the tumor associated antigen (TAA) MART1) were assessed for their capacity to promote epitope presentation on MHC class I by human DCs. To this purpose, DCs from an HLA-A2+ donor were prepared from elutriated monocytes, cultured in CelIGro DC medium (CellGenix, Freiburg, Germany) with granulocyte-macrophage colony-stimulating factor (GM-CSF; 2500 U/ml) (Leucomax; Schering-Plough, Kenilworth, N.J.) and interleukin-4 (IL-4; 1000 U/ml) (CellGenix). The immature DCs were matured with cytokines: IL-1β (10 ng/ml), IL-6 (1000 U/ml), tumor necrosis factor α (TNFα; 10 ng/ml) (all from CellGenix) and prostaglandin E2 (1 μg/ml) (Sigma-Aldrich). DCs were rested in CellGro DC medium for 2 hours and loaded with 1 μM Scramble-MART1, Z13-MART1, Z14-MART1, Z15-MART-1 or Z18-MART1 for 4 hrs at 37° C. before being washed once and plated at 300 000 cells per well in round-bottomed 96-well plates. Non-peptide loaded DCs were used as a negative control. T cells were expanded from peripheral blood mononuclear cells using Dynabeads ClinExVivo CD3/CD28 (Life Technologies, Oslo, Norway). Expanded T cells (day 10 post activation) were transfected with the DMFS TCR specific for MART1 by mRNA electroporation. T cells were co-incubated with DCs at a ratio of 1:2 for 5 hours in the presence of GolgiPlug and GolgiStop (both BD Biosciences) before intracellular staining was performed using the following antibodies after FcR blocking; CD4 (RPAT4), CD8 (RPAT8), CD107a (H4A3) (BD Biosciences), IFN-γ (4S.B3) and TNF-α (MAb11) (BD Biosciences), all from eBioscience except where noted. Fixation and permabilization was performed using the PerFix kit from Beckman Coulter according to manufacturer's instructions. Cells were analysed using an LSR II flow cytometer (BD Biosciences) and results were processed with Kaluza (Beckman Coulter) software. All conditions were tested in duplicate, and the experiment was repeated up to three times.

[2] = tested on: self antigen (CD8 epitope from gp100)-specific CD8 T cells; experiment: Self antigen-specific CD8 T cell response after vaccination (gp100CD8 restimulation, multimer staining); assay type: in vivo, mice; details: 10 nmol ZxxOVACD4gp100CD8 s.c. wk0, wk2, wk9, combined with MPLA or Hiltonol
Description: The constructs were tested in combination with Hiltonol (A) and MPLA (B). Briefly, Mice were vaccinated three times (wk0, wk2 and wk9) by s.c. injection (right flank) of 10 nmol of Z13OVACD4gp1 00CD8, Z14OVACD4gp1 00CD8, Z18OVACD4gp100CD8 and i.m. injection of […] of Hiltonol (right hind leg) or s.c. injection of 20 μg of MPLA. One week after the last vaccination, spleen cells were restimulated in vitro for 7 days with gp100CD8 peptide and stained as described in Example 6.
To extend the previous findings to self antigen-specific immune response, Z13, Z14 and Z18 conjugated to antigenic cargo containing a self antigen (CD8 epitope from gp100) and CD4 T cell epitope from OVA were synthesized.
Firstly, those constructs were tested with Hiltonol or MPLA adjuvant. To this end, mice were vaccinated three times (wk0, wk2 and wk9) by s.c. injection (right flank) of 10 nmol of Z13OVACD4gp100CD8, Z14OVACD4gp100CD8, Z18OVACD4gp100CD8 and i.m. injection of 50 μg of Hiltonol (right hind leg) or s.c. injection of 20 μg of MPLA. One week after the last vaccination, spleen cells were restimulated in vitro for 7 days with gp100CD8 peptide and stained as follow. Briefly, for surface staining, after FcR blocking, the following mAb were used: CD4 (RMA4-4), CD8 (53-6.7), CD11b (M1/70), CD19 (6D5), all from BD Biosciences. Dead cells were identified with LIVE/DEAD yellow fluorescent reactive dye (L34959) from Life Technologies and were excluded from analyses. MHC-peptide multimers were from Immudex (Copenhagen, Denmark). Multimer gating strategy used a dump gate (CD4, CD11b, CD19) and excluded dead cells.

| Sequence | stimulation of human MART1-specific CD8 T cells [1] | self antigen-specific CD8 T cell immune response [2] |
| --- | --- | --- |
| KRYKNRVASRKSRAKFKQLLQHYREVAAAKSSENDRLRLLLK [Z13] | particularly efficacious | high self antigen-specific CD8 immune response |
| KRYKNRVASRKSRAKFKQLLQHYREVAAAK [Z14] | particularly efficacious | high self antigen-specific CD8 immune response |
| KRYKNRVASRKSRAKFK (CPP Z15) [ZEBRA CPP truncation] | particularly efficacious |  |
| REVAAAKSSENDRLRLLLK [Z18] | markedly less efficient | did not elicit self antigen-specific CD8 T cell responses |
